Test results taken from PubChem BioAssay (NCI).
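How tested: cells in 96-well plates exposed to compound for 48 hours at five concentrations. GI50 = concentration required for 50% inhibition of growth. At the TGI there is no net growth.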

Tested on: SN12K1 renal
Test: DTP human tumour cell line panel, 48 h

In the case of `C=C1C(=O)OC2C1CC1OC2C(C)CCC/C(C)=C\CCC1(C)O` (centres undefined), the TGI is reported as 40.2 µM.
In the case of `O.O=[Se](=O)(O)O.[NH-]C1CCCCC1[NH-].[Pt+2]` (centres undefined), the GI50 is reported as > 30.4 µM and the TGI is reported as > 100 µM.
Work on `COc1cccc2c1C(=O)c1c(O)c3c(c(O)c1C2=O)C[C@](O)(C(=O)CO)CC3OC1CC(N)C(OC2CCCCO2)C(C)O1` (some centres undefined) yielded a TGI of 0.879 µM.
